According to the supplement of paper PMC10307832:

Legend:
Assay in all cases: relative viability (nuclei count vs DMSO), 5 days (fraction); higher = more cells survive
[1] = compound: COc1cc2nccc(Oc3ccc(NC(=O)C4(C(=O)Nc5ccc(F)cc5)CC4)cc3)c2cc1OC [Cabozantinib] + O=C(CCCCCCC(=O)Nc1ccccc1)NO [Vorinostat] (partner 1 µM)
How it was run: (§1)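 The day after seeding in 1536-well plates, lung cancer cell lines were treated by pin tool with a single drug, or with a fixed anchor-drug dose together with five library-drug doses (not always all listed) in √10 steps. After 5 days, a combined fix-and-stain solution (final 0.05% Triton X-100, 1% formaldehyde, 1 ug/ml Hoechst) was added. Nuclei counted on 4× images gave relative viability as treated counts over vehicle counts, reported as the median of duplicate plates.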

Zosuquidar + Tozasertib = compound: O[C@@H](COc1cccc2ncccc12)CN1CCN([C@@H]2c3ccccc3[C@@H]3[C@H](c4ccccc42)C3(F)F)CC1 [Zosuquidar] + Cc1cc(Nc2cc(N3CCN(C)CC3)nc(Sc3ccc(NC(=O)C4CC4)cc3)n2)n[nH]1 [Tozasertib] (partner 0.1 µM)
How it was run: as §1

Zosuquidar + Dasatinib = compound: O[C@@H](COc1cccc2ncccc12)CN1CCN([C@@H]2c3ccccc3[C@@H]3[C@H](c4ccccc42)C3(F)F)CC1 [Zosuquidar] + Cc1nc(Nc2ncc(C(=O)Nc3c(C)cccc3Cl)s2)cc(N2CCN(CCO)CC2)n1 [Dasatinib] (partner 0.075 µM)
How it was run: as §1

Cabozantinib + Alpelisib = compound: COc1cc2nccc(Oc3ccc(NC(=O)C4(C(=O)Nc5ccc(F)cc5)CC4)cc3)c2cc1OC [Cabozantinib] + Cc1nc(NC(=O)N2CCC[C@H]2C(N)=O)sc1-c1ccnc(C(C)(C)C(F)(F)F)c1 [Alpelisib] (partner 2 µM)
How it was run: as §1

Cell Line	relative viability ([1]; first compound 0.02 µM)	relative viability ([1]; first compound 0.06325 µM)	relative viability ([1]; first compound 0.2 µM)	relative viability ([1]; first compound 0.6325 µM)	relative viability ([1]; first compound 2 µM)	relative viability (Zosuquidar + Tozasertib; first compound 0.01 µM)	relative viability (Zosuquidar + Tozasertib; first compound 0.03162 µM)	relative viability (Zosuquidar + Tozasertib; first compound 0.1 µM)	relative viability (Zosuquidar + Tozasertib; first compound 0.3162 µM)	relative viability (Zosuquidar + Tozasertib; first compound 1 µM)	relative viability (Zosuquidar + Dasatinib; first compound 0.01 µM)	relative viability (Zosuquidar + Dasatinib; first compound 0.03162 µM)	relative viability (Zosuquidar + Dasatinib; first compound 0.1 µM)	relative viability (Zosuquidar + Dasatinib; first compound 0.3162 µM)	relative viability (Zosuquidar + Dasatinib; first compound 1 µM)	relative viability (Cabozantinib + Alpelisib; first compound 0.02 µM)	relative viability (Cabozantinib + Alpelisib; first compound 0.06325 µM)	relative viability (Cabozantinib + Alpelisib; first compound 0.2 µM)	relative viability (Cabozantinib + Alpelisib; first compound 0.6325 µM)	relative viability (Cabozantinib + Alpelisib; first compound 2 µM)
NCI-H650	0.412	0.489	0.458	0.721	0.414	0.795	0.748	0.739	0.803	0.791	0.442	0.344	0.373	0.517	0.455	1.04	1.01	1.13	1.05	0.926
NCI-H1734	0.703	1.01	0.847	0.886	0.792	0.263	0.254	0.243	0.268	0.263	0.41	0.408	0.455	0.571	0.531	0.718	0.681	0.717	0.654	0.638
LOU-NH91	0.851	0.973	0.822	0.853	0.914	0.697	0.624	–	0.706	0.71	0.515	0.377	–	0.601	0.552	0.721	0.793	0.505	0.742	0.713
SK-MES-1	1.06	1.27	1.16	1.11	1.16	0.797	1.01	0.97	0.942	0.857	0.361	0.339	0.343	0.365	0.361	1.08	0.993	0.846	0.826	0.816
NCI-H2170	0.818	0.821	0.704	0.847	0.914	0.788	0.733	0.825	0.622	0.738	0.464	0.661	0.636	0.767	0.58	0.842	0.958	0.723	0.854	0.781
NCI-H460	0.893	0.818	0.68	0.635	0.741	0.335	0.474	0.671	0.476	0.323	0.428	0.364	0.453	0.855	0.485	0.667	0.61	0.459	0.579	0.483
SK-LU-1	0.719	1.04	0.755	0.797	0.72	0.292	0.359	0.417	0.353	0.332	0.191	0.145	0.194	0.211	0.189	–	1.29	0.983	0.718	0.705
EPLC-272H	0.299	0.44	0.402	0.534	0.524	0.192	0.245	0.358	0.261	0.253	0.381	0.316	0.331	0.325	0.389	1.02	0.944	0.727	0.949	0.847
A-427	0.871	0.865	0.902	0.841	0.951	0.205	0.247	0.271	0.218	0.192	0.603	0.684	0.634	0.709	0.8	1.08	1.12	1.12	1.05	1.01
